Measurements taken from paper PMC4055595, “Pharmacokinetic Compatibility of Ginsenosides and Schisandra Lignans in Shengmai-san: From the Perspective of P-Glycoprotein” (PLoS ONE, 2014).
Read-outs that look alike come from different tables or passages of the source.

Columns and labels:
[1] = tested on: Caco-2 cell monolayer; assay: Transport of digoxin and ginsenosides across Caco-2 cell monolayer (efflux ratio); format: in vitro ADME, human
Method: (§1) Caco-2 cells were purchased from American Type Culture Collection (Manassas, VA), and were routinely cultured in Dulbecco's modified Eagle's medium supplemented with 10% fetal bovine serum, 1% nonessential amino acids, 1 mM sodium pyruvate, and 100 U/mL penicillin and streptomycin (Invitrogen, Carlsbad, CA). The cells were grown in an atmosphere of 5% CO2 at 37°C, and cell medium was changed every other day. Cells were seeded at a density of 4×10^4 cells per well in 24-well microporous polycarbonate insert filter plates (0.4-µm pore size) (Corning Costar plates; Corning Life Sciences, Lowell, MA) and grown for 15 days in Caco-2 growth medium. The medium was replaced every 3 to 4 days. Before running the assay, the culture medium was replaced by HBSS buffer supplemented with 10 mM Hepes and 20 mM glucose.
(§2) Caco-2 cells with a density of 1.2×10^5 cells/insert were seeded on a permeable polycarbonate insert (Millicell cell culture inserts, 0.4 µm pore size, 12 mm diameter; Millipore Corporation) in 24-well tissue culture plates and were used for the experiment 18 to 21 days after seeding. [^14C]Mannitol permeability and transepithelial electrical resistance measurements (Millicell-ERS epithelial volt-ohm meter; Millipore Corporation) were used to evaluate the integrity of Caco-2 cell monolayer. The monolayer used in transport studies had transepithelial electrical resistance values exceeding 600 Ω·cm^2, and the leakage of mannitol was less than 0.3% of the dose/h. Before transport initiation studies, the cell monolayer was first washed with warm HBSS (pH 7.4) twice. HBSS containing SLE (2.0 and 10.0 µg/mL) or 1% ethanol (control) was then loaded into both apical and basolateral chambers. After incubation at 37°C for 1.5 h, 100 µg/mL of GE was added to either the apical or basolateral side to evaluate the transport in absorptive and secretory directions, and the cell monolayer was incubated for another 2 h. 10 µM verapamil was used as a positive control inhibitor. At the designated time point, samples were taken from the receiving chamber for analysis. Ginsenosides were determined by LC-MS. All experiments were conducted in triplicate.
(§3) For the transport assay, the apparent permeability (P app, cm/s) in each direction (A→B and B→A) was calculated as follows, where A is the surface area of the membrane inserts (0.0804 cm^2), C 0 is the initial concentration of the compound applied in the donor compartment (2 µM), and △Q is the amount (micromoles) of compound transported over time △t (5 h = 18,000 s): [drawing 1]
(§4) The efflux ratio (ER) was a dimensionless number calculated as the ratio of the apparent permeability in the B→A direction divided by the apparent permeability in the A→B direction. [drawing 2]

[2] = as above; format: in vitro ADME, human; settings: human, pH 7.4; Caco-2 cell monolayer, absence of inhibitor, GE 100 µg/mL; read-out: Efflux ratio
Method: as §1, §2, §3, §4

[3] = tested on: P-gp; design: method as in PMID 16557452; settings: Caco-2 cell monolayer; cited from earlier work
[4] = tested on: Caco-2 cells; assay: Uptake of digoxin and ginsenosides in Caco-2 cells; format: in vitro ADME, human
Method: as §1
Caco-2 cells were incubated with SLE (2.0 and 10.0 µg/mL) or verapamil (10 µM) for 1.0 h. Then the cells were washed with Hank's to discard SLE or verapamil before the addition of GE (100 µg/mL). The accumulation of ginsenosides lasted for 2 h, and the intracellular concentrations of ginsenosides were measured by LC/MS. All experiments were conducted in triplicate.

[5] = Rat plasma pharmacokinetics after single-dose vehicle/SLE and digoxin or GE; format: in vivo, Sprague-Dawley rats; settings: rats; for half-life / AUC / Cmax / AUC(0-inf) / MRT inf / Tmax: female, Sprague-Dawley, rat, plasma, po; for half-life / AUC / Cmax / AUC(0-inf) / MRT inf / Tmax / Cl_F_obs: 2 h later digoxin 0.5 mg/kg or GE 120 mg/kg ig; for half-life: read-out: t1/2 (converted); for AUC(0-inf): read-out: AUCINF_obs; for MRT inf: read-out: MRTINF_obs; for Tmax: read-out: Tmax
Method: This study was carried out in strict accordance with the recommendations in the Guide for the Care and Use of Laboratory Animals of the National Institutes of Health. The protocol was approved by the Committee on the Ethics of Animal Experiments of the China Pharmaceutical University. All surgery was performed under sodium pentobarbital anesthesia, and all efforts were made to minimize suffering. Female healthy Sprague-Dawley rats (200±20 g) were purchased from the Laboratory Animal Center of Peking University Health Science Center (Beijing, PR China) and kept in an environmentally controlled breeding room for at least 3 days before experimentation. The rats were fed with standard laboratory food and water and fasted overnight but with free access to water before the test. To evaluate the effect of single treatment of SLE on the pharmacokinetics of ginsenosides, 24 rats were divided into four groups (group I ∼ group IV) averagely. […] In group II (control group): the rats received a single dose of vehicle (0.5% CMC-Na), and digoxin (0.5 mg/kg) was also given to the rats by intragastric administration. […] In group IV (control group): the rats received a single dose of vehicle (0.5% CMC-Na), and GE (120 mg/kg) was also given to the rats by gavage. […] Plasma was obtained by centrifugation at 5000 g for 10 min and stored at −20°C before analysis. The plasma / cell samples were extracted using a liquid–liquid extraction technique. To each tube containing 100 µL plasma, 10 µL internal standard (digoxin, 1.0 µg/mL) and 1.0 mL of n-butanol were added. The mixture was then vortex-extracted for 2 min, and centrifuged for 10 min at 10,000 g. […] The plasma concentration-time curves of ginsenosides in rats were obtained by plotting the mean plasma concentrations versus time. Pharmacokinetic parameters were calculated using the WinNonlin 6.3 program (Pharsight Inc., Mountain View, CA). The elimination half-life (t 1/2) value was calculated as 0.693/β, where β is the elimination rate constant calculated from the terminal linear portion of the log plasma concentration-time curve. The total areas under the plasma concentration- time curve from time 0 to the last quantifiable time point (AUC0-t) and from time 0 to infinity (AUC0-∞) were calculated using the log trapezoidal rule. [drawing 3] The maximum plasma concentrations (C max) for ginsenosides were obtained by visual inspection of the plasma concentration-time curve, whereas the initial drug concentration (the extrapolated concentration at zero time) of the drug after intravenous injection was calculated by back-extrapolation of the plasma concentration-time curve to the y-axis.

[6] = single-dose SLE 500 mg/kg vs vehicle, GE ig

With `CC(C)=CCC[C@](C)(O[C@@H]1O[C@H](CO[C@@H]2O[C@H](CO)[C@@H](O)[C@H](O)[C@H]2O)[C@@H](O)[C@H](O)[C@H]1O)[C@H]1CC[C@]2(C)[C@@H]1[C@H](O)C[C@@H]1[C@@]3(C)CC[C@H](O[C@@H]4O[C@H](CO)[C@@H](O)[C@H](O)[C@H]4O[C@@H]4O[C@H](CO)[C@@H](O)[C@H](O)[C@H]4O)C(C)(C)[C@@H]3CC[C@]12C` [Rb1, ginsenoside Rb1] the “Effect of verapamil on efflux ratio” value ([1]; Caco-2 cells, 10 µM verapamil) was “decreased significantly”, the “Effect of SLE on BL-AP transport / efflux ratio” value ([1]; Caco-2 monolayer, SLE 2.0 and 10.0 µg/mL) was “concentration dependently decrease” and the efflux ratio at 2 h, 100 µg/mL [2] was 3.77. The “Transport by P-gp” value [3] was “not be transported by P-gp”, the “Effect of verapamil on uptake” value ([4]; 10 µM verapamil) was “significantly enhanced” and the “Effect of SLE on intracellular concentration” value ([4]; SLE 2.0 and 10.0 µg/mL, P<0.01) was “concentration dependently increase”. The half-life ([5]; control: single vehicle (0.5% sodium CMC)) was 800 ± 146 min, the AUC ([5]; control: single vehicle) was 14300 ± 2380 ng·h/mL and the Cmax ([5]; control: single vehicle) was 491 ± 61.4 ng/mL. For the same compound, the AUC(0-inf) ([5]; control: single vehicle) was 14400 ± 2470 ng·h/mL, the MRT inf ([5]; control: single vehicle) was 23.1 ± 4.31 h and the Tmax ([5]; control: single vehicle) was 7.5 ± 1 h. The AUC ([5]; single SLE 500 mg/kg ig) was 18500 ± 5780 ng·h/mL, the Cmax ([5]; single SLE 500 mg/kg ig) was 651 ± 127 ng/mL and the AUC(0-inf) ([5]; single SLE 500 mg/kg ig) was 18500 ± 5730 ng·h/mL. For the same compound, the MRT inf ([5]; single SLE 500 mg/kg ig) was 23.5 ± 2.68 h, the Tmax ([5]; single SLE 500 mg/kg ig) was 11 ± 2 h and the half-life ([5]; single SLE 500 mg/kg ig) was 680 ± 164 min. The Cl_F_obs ([5]; control: single vehicle) was 0.007 ± 0.001 L/h, the Cl_F_obs ([5]; single SLE 500 mg/kg ig) was 0.006 ± 0.002 L/h and the “Effect of SLE treatment on Cmax” value [5, 6] was “significantly enhanced”. For the same compound, the “Increase of AUC (AUC0-∞) by coadministration of SLE” value [5, 6] was 1.29 fold.
